Data from patent US20070003640A1, “Process for controlling the isomerization of (-)-epicatechin and (+)-catechin in edible products” (priority 2005, published 2007).

Assay: Isomerization of (+)-catechin to (+)-epicatechin
Format: physicochemical
Details: equilibrium mixture from isomerization of (+)-catechin
Description: While the above examples were specifically directed to the isomerization of (−)-epicatechin to (−)-catechin, it will be understood that the same processes can and will result in the isomerization of (+)-catechin to (+)-epicatechin. It will further be understood that the kinetics for the isomerization of (+)-catechin to (+)-epicatechin are similar to those for the isomerization of (−)-epicatechin to (−)-catechin, viz., the equilibrium point for a given set of temperature and pH parameters is essentially the same for either isomerization, and the equilibrium mixture resulting from the isomerization of (+)-catechin is about 70% (+)-catechin and about 30% (+)-epicatechin, with a molar ratio of (+)-epicatechin to (+)-catechin of about 1:2. Indeed, we have observed that the isomerization of (+)-catechin to (+)-epicatechin favors the same equilibrium point as the isomerization of (−)-epicatechin to (−)-catechin, that is, the molar ration of 1:2 (+)-epicatechin:(+)-catechin.

Oc1cc(O)c2c(c1)O[C@H](c1ccc(O)c(O)c1)[C@@H](O)C2 [(+)-catechin]
(+)-catechin in equilibrium mixture: about 70% | (+)-epicatechin in equilibrium mixture: about 30%
